Reference: patent US20040170580A1, “Filtering suntan product” (priority 2001, published 2004)

Test system: normal human keratinocyte/melanocyte cocultures
Assay: UV-induced melanogenesis by 14C-thiouracil incorporation related to amount of protein
Format: cell-based
Experimental: The protoprotective and propigmenting effect of the combination was tested on normal human keratinocyte/melanocyte cocultures according to the method described in patent FR 95/06491, by evaluating the UV-induced melanogenesis. The rate of melanin synthesis is evaluated through the incorporation of C^14-labeled thiouracil. It is related to the amount of protein.
Normal human keratinocytes (NHKs) and normal human melanocytes (NHMs) are cultured from foreskin. The two types of cell are amplified and stored frozen. Eight days before the test, each of the cell types is again placed in culture. The keratinocytes are cultured according to the method described by Rheinwald and Green (Cell (1975) 6, 331-334) on feeder cells (3T3 fibroblasts) in Green 7F growth medium (DMEM/F12, 3:1, 10% fetal calf serum (Gibco), 0.18 mM adenine, 10 ng/ml epidermal growth factor EGF, 0.4 μg/ml hydrocortisone, 5 μg/ml insulin, 10 μM isoproterenol, 5 μg/ml transferrin and 2 nM triiodothyronine). The melanocytes are amplified in M2 medium (Olsson, M. J. et al., Lancet (1992) 340, 981). The media are changed every two days.
3 days before the test, 250 000 normal human keratinocytes and 80 000 normal human melanocytes are mixed and seeded per well of 24-well plates (Costar type) and cultured for three days in the keratinocyte growth medium (Green 7F) without phenol red. During the following four days, the culture medium is replaced daily with UV medium (DMEM/F12, 3:1, without phenol red, 2% defined calf serum (HyClone), 10 ng/ml EGF, 10 ng/ml fibroblast growth factor type β (βFGF)).
The UV-induction of pigmentation is carried out by solar simulated radiation (SSR) using a 1 000 watt Oriel Xenon solar simulator comprising a 280-400 nm dichroic filter (Oriel, model 81035) and a Schott WG 320 filter having a wavelength cut-off of 311 nm (corresponding to a thickness of approximately 1.5 mm).
The cell cultures are irradiated once a day for 4 days in a phosphate buffer solution (PBS).
The propigmenting molecules are brought into contact with the cells in the PBS during the irradiation and added to the culture medium (UV medium) after irradiation.
The extract of Burnet is tested at 0.005%. It is prepared in a stock solution at 0.5% in a solvent (dimethyl sulfoxide, DMSO), which is added at a 1/1 000 dilution to the PBS and to the UV medium. The final concentration of the solvent in the culture medium is therefore 1/1 000.
The extract of Chrysanthemum sinensis obtained according to protocol Nos. 2+4 is tested at 1%.
The tyrosine, which serves as a positive control, is tested at 500 μM.
The Mexoryl SX® is tested at 8%.
After each exposure to UV radiation, the formulations containing the sunscreen are applied, in the proportion of 1.4 mg/cm^2, to a quartz slide on which there is a Transpore® strip, according to a method derived from that used to determine sun protection indices in vitro, described by Diffey and Robson (J Soc Cosmet Chemists (1989) 300, 230-235). The assembly is placed above the cocultures for the duration of the irradiation.
After irradiation, the cells are incubated in the UV medium containing 1 μCi/ml of C^14-labeled thiouracil.
Measurement of Melanogenesis:
The following controls are realized:
control culture: no product tested […]
24 hours after the final UV irradiation, the cells are rinsed in phosphate buffer. The proteins are precipitated with 5% trichloroacetic acid (TCA) and washed in order to remove the free radioactivity. […]

N[C@@H](Cc1ccc(O)cc1)C(=O)O [tyrosine]
% variation in melanin synthesis compared to the control; A = 14CthioU/amount protein (%/control) (SSR irradiation once a day for 4 days, no screening agent, tyrosine 500 μM, extract of Burnet 0.005% (DMSO solvent), extract of Chrysanthemum sinensis 1%): 382%
% variation in melanin synthesis compared to the control; A = 14CthioU/amount protein (%/control) (SSR irradiation screened by 8% Mexoryl SX formulation, in combination with propigmenting agent: tyrosine 500 μM, extract of Burnet 0.005% (DMSO solvent), extract of Chrysanthemum sinensis 1%): 74%
% variation in melanin synthesis compared to the control; A = 14CthioU/amount protein (%/control) (no irradiation, propigmenting agent alone: tyrosine 500 μM, extract of Burnet 0.005% (DMSO solvent 1/1000), extract of Chrysanthemum sinensis 1%): 40%

CC1(C)C2CCC1(CS(=O)(=O)O)C(=O)C2=Cc1ccc(C=C2C(=O)C3(CS(=O)(=O)O)CCC2C3(C)C)cc1 [Mexoryl SX ®]
% variation in melanin synthesis compared to the control; A = 14CthioU/amount protein (%/control) (SSR irradiation + solvent (DMSO 1/1000), 8% Mexoryl SX formulation on quartz slide above the cocultures, no propigmenting agent): 36%
% variation in melanin synthesis compared to the control; A = 14CthioU/amount protein (%/control) (SSR irradiation once a day for 4 days, 8% Mexoryl SX formulation 1.4 mg/cm2 on quartz slide above the cocultures, no propigmenting agent, no solvent): 15%
